# Laboratory results published in publication PMC9889419 (Pharmacological Reports, 2022).
# Where a name gives a salt, the structure may show the parent alone.
# Experiments:
# [1] = tested on: P-glycoprotein (pregnane X receptor); experiment: In vitro metabolic gene induction studies; format: cell-based, human; conditions: up to 500 uM
# Description: Test 28 - In Vitro Metabolic Gene Induction Studies
# Solventcode: DMSO Solvent Prep: Unit: uM
# Cell line source: Puracyp Molecular 257.7590
# Date Started: O5+eb-2O10 Date Completed: 15+eb-201O Weight:
# Reference: Lamb book#8 pg.77 […]
# lsoform Code: P{lycoprotein cell line: MDRI.C
# Induc0on mechanism: pregnane X receptor
# Concentration lnduction Cell […]
# Note: 8ox ifdata is different.
# . {calculated): slight Induotion (under tlffo fold) in vitro.
# The highest response was less than that seen with 1ouM rifampicin.
# (1 picture or pasted object on this page, not shown here)
# rats = format: in vivo; conditions: ip
# STZ-treated mice = experiment: Streptozotocin-induced diabetic neuropathy, hot plate test; format: in vivo
# Description: Induction of diabetes. To induce diabetes the mice were injected with a single ip streptozotocin (STZ, Sigma-Aldrich, Germany) dose (200 mg/kg) dissolved in 0.1 N citrate buffer. Blood glucose levels were measured 1 h before and repeatedly 1, 2 and 3 weeks after STZ injection using a blood glucose monitoring system (AccuChek Active, Roche, France). Blood samples (5 µL) for the measurement of glucose concentration were obtained from the mouse tail vein. The animals were defined as diabetic when their blood glucose concentration exceeded 300 mg/dL and only those mice were used as diabetic mice in further tests. The body weight of mice was monitored 1 h before and 21 days after STZ injection.
# Assessment of heat hyperalgesia in STZ-treated mice—hot plate test. Thermal hyperalgesia was assessed using the hot plate apparatus (Bioseb, France). In this test, after the establishment of pre-drug latency to pain reaction for each animal, the mice were treated with the tested compound and 30 min later they were placed into a glass cylinder on a hot plate set at 55 °C and observed for a nocifensive response (hind paw licking or jumping). The cut-off time was established at 30 s.
# anaesthetized rat = experiment: Effect on normal electrocardiogram; format: in vivo, rats;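 further: standard lead II ECG run at 50 mm/s, taken before dosing and at serial times up to 60 min after iv or 90 min after po administration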
# Description: The effect on normal electrocardiogram. In vivo electrocardiographic investigations were carried out on using ASPEL ASCARD B5, (Aspel, Poland) apparatus, standard lead II, and paper speed of 50 mm/s. The ECG was recorded just prior to and also 1, 2, 3, 5, 10, 15, 20, 30, 40, 50, and 60 min following the iv or 5, 10, 20, 30, 40, 50, 60, 70, 80, 90 following the po administration of the compound.
# [2] = Degradation kinetics under basic conditions; format: physicochemical; conditions: 70.0 ± 0.5 °C, pH 9.90, 1,4-dioxane 20% v/v
# Description: Chromatographic conditions. The liquid chromatography system Merck-Hitachi LaChrom Elite, equipped with a LiChroSpher RP-18 (250 × 4.6 mm; particle size 5 µm) column from Merck was used. Isocratic elution using a mobile phase composed of phosphate buffer pH = 4.36 and acetonitrile (40:60, v/v) at a flow rate of 1 mL min^−1 at 25 °C and single-wavelength UV detection at 260 nm was applied for the analysis. The injection volume was 20 µL.
# Kinetic studies. […] After 5 min, first 50 µL sample was taken using a Hamilton syringe. The sample was diluted with 100 µL of pH = 4.36 phosphate buffer and frozen at − 18 °C. The reaction was conducted for 1606 h with samples taken at selected time intervals. After the experiment was finished, the samples have been defrosted and analyzed using the RP-HPLC method described above.
# hNav1.7 sodium channel = molecular target: T1, hNav1.7 sodium channel (Homo sapiens, UniProt Q15858); experiment: Nav channel electrophysiology (IonWorks Quattro); format: cell-based
# T1 construct: host or cells: CHO cells
# mice = experiment: Writhing test; format: in vivo; conditions: 30 mg/kg
# Description: Inflammatory acute pain—writhing test. In this test, mice were placed individually into glass beakers and were allowed to habituate for the next 30 min. Then, each mouse was injected with tested compound, dissolved in saline (at a dose 30 mg/kg) or vehicle, and then placed back into the glass beaker for 30 min. To induce inflammatory pain, 0.9% acetic acid solution (Polskie Odczynniki Chemiczne, Poland) prepared in saline was injected by the intraperitoneal route. Mice were placed in the beakers again and were observed continuously for the next 30 min. Stereotypical writhes (lengthwise constrictions of the torso with a concomitant concave arching of the back) were counted over this period in drug-treated and control mice.
# T1 sequence (Q15858 whole entry): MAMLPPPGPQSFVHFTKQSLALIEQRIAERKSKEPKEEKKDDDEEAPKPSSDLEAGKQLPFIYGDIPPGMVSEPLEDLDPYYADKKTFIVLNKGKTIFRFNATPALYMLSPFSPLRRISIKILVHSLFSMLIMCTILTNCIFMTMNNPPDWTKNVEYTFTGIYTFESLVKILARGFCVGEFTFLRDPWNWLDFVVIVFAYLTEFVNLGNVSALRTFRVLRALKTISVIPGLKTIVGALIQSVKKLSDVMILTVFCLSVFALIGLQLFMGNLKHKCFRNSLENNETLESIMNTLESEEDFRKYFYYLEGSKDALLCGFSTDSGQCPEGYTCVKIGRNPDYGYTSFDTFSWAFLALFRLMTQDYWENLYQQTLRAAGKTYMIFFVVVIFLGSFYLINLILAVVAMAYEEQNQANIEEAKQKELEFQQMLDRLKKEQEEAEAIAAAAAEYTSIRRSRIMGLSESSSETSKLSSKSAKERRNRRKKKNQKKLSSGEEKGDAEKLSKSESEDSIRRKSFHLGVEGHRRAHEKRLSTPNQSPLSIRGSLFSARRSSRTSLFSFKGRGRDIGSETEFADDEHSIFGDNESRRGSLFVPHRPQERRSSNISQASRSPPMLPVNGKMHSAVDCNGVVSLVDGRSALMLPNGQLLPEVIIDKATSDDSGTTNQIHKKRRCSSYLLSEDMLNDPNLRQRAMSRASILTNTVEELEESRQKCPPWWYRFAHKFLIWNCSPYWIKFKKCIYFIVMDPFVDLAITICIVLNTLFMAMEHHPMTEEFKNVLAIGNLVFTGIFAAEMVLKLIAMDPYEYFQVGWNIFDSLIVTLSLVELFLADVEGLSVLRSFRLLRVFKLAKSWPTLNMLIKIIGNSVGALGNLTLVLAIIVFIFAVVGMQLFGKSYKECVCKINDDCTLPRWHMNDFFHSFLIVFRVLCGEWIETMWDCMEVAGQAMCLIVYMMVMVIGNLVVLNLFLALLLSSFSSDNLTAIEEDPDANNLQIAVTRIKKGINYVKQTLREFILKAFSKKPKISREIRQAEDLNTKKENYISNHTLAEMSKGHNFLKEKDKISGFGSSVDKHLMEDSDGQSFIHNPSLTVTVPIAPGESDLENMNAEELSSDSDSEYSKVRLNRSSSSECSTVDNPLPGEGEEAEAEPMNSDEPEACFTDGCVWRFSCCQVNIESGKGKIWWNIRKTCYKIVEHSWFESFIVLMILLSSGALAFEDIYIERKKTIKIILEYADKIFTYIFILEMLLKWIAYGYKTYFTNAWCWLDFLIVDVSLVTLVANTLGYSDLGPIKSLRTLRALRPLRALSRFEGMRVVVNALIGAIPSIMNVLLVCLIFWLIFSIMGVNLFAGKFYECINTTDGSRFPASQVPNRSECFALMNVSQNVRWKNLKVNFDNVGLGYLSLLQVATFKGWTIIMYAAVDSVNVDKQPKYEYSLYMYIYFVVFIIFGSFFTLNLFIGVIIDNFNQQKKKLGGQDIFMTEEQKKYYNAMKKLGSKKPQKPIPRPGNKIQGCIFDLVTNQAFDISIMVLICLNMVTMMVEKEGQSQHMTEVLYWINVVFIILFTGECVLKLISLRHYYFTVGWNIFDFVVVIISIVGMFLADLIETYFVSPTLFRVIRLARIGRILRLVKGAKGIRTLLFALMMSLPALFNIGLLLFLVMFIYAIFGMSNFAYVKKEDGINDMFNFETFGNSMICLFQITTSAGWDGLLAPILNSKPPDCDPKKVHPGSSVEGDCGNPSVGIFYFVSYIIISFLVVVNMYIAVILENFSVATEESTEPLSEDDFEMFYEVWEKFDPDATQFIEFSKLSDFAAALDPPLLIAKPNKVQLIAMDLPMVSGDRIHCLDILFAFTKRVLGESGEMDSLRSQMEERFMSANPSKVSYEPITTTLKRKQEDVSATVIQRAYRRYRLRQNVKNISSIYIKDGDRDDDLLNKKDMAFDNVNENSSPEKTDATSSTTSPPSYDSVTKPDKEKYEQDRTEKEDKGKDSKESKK
structure (smiles),measurement,setting,value
"CCC(CO)NCCOc1c(C)cccc1Cl (centres unmarked) [Compound 4, R,S-2-((2-(2-chloro-6-methylphenoxy)ethyl)amino)butan-1-ol]",induction,[1],slight induction
same,TD97,rats,40.53 mg/kg
same,Pilocarpine-induced status epilepticus prevention: result,rats; at 40 mg/kg,no activity
"CCC(CO)NCCOc1c(C)cccc1Cl (centres unmarked) [KM-408, R,S-2-((2-(2-chloro-6-methylphenoxy)ethyl)amino)butan-1-ol hydrochloride]",effect in hot plate test,"STZ-treated mice; 1 mg/kg, STZ-treated mice",not effective
same,latency to pain reaction,"STZ-treated mice; 10 mg/kg, STZ-treated mice",15.8 ± 2.2 s
same,prolongation of latency vs. diabetic control,"STZ-treated mice; 10 mg/kg, STZ-treated mice",63%
same,latency to pain reaction,"STZ-treated mice; 30 mg/kg, STZ-treated mice",21.6 ± 2.2 s
same,prolongation of latency vs. diabetic control,"STZ-treated mice; 30 mg/kg, STZ-treated mice",123%
same,STZ-induced pain (hot plate): active at,"STZ-treated mice; mice, ip",10 mg/kg
same,PQ,"anaesthetized rat; 5 mg/kg iv, 0 min",50.5 ± 2.6 ms
same,QT,"anaesthetized rat; 5 mg/kg iv, 0 min",56.8 ± 3.8 ms
same,PQ,"anaesthetized rat; 5 mg/kg iv, 1 min",59.5 ± 5.3 ms
same,QT,"anaesthetized rat; 5 mg/kg iv, 1 min",58.0 ± 3.4 ms
same,PQ,"anaesthetized rat; 5 mg/kg iv, 3 min",54.8 ± 2.9 ms
same,QT,"anaesthetized rat; 5 mg/kg iv, 3 min",60.0 ± 2.8 ms
same,PQ,"anaesthetized rat; 5 mg/kg iv, 5 min",54.4 ± 2.3 ms
same,QT,"anaesthetized rat; 5 mg/kg iv, 5 min",56.8 ± 3.9 ms
same,PQ,"anaesthetized rat; 5 mg/kg iv, 10 min",54.0 ± 1.9 ms
same,QT,"anaesthetized rat; 5 mg/kg iv, 10 min",56.2 ± 4.2 ms
same,PQ,"anaesthetized rat; 5 mg/kg iv, 15 min",54.4 ± 1.9 ms
same,QT,"anaesthetized rat; 5 mg/kg iv, 15 min",55.2 ± 4.1 ms
same,PQ,"anaesthetized rat; 5 mg/kg iv, 20 min",54.4 ± 2.0 ms
same,QT,"anaesthetized rat; 5 mg/kg iv, 20 min",56.0 ± 4.0 ms
same,PQ,"anaesthetized rat; 5 mg/kg iv, 30 min",54.8 ± 1.7 ms
same,QT,"anaesthetized rat; 5 mg/kg iv, 30 min",57.2 ± 3.7 ms
same,PQ,"anaesthetized rat; 5 mg/kg iv, 40 min",53.6 ± 2.2 ms
same,QT,"anaesthetized rat; 5 mg/kg iv, 40 min",57.0 ± 3.7 ms
same,PQ,"anaesthetized rat; 5 mg/kg iv, 50 min",53.6 ± 2.6 ms
same,QT,"anaesthetized rat; 5 mg/kg iv, 50 min",58.8 ± 3.4 ms
same,PQ,"anaesthetized rat; 5 mg/kg iv, 60 min",53.6 ± 1.5 ms
same,QT,"anaesthetized rat; 5 mg/kg iv, 60 min",56.0 ± 4.0 ms
same,influence on heart rate or ECG intervals,anaesthetized rat; 50 mg/kg po,did not influence
same,PQ,"anaesthetized rat; 50 mg/kg po, 0 min",55.6 ± 1.8 ms
same,QT,"anaesthetized rat; 50 mg/kg po, 0 min",55.2 ± 3.9 ms
same,PQ,"anaesthetized rat; 50 mg/kg po, 5 min",59.2 ± 1.9 ms
same,QT,"anaesthetized rat; 50 mg/kg po, 5 min",60.0 ± 0.0 ms
same,PQ,"anaesthetized rat; 50 mg/kg po, 10 min",59.6 ± 2.1 ms
same,QT,"anaesthetized rat; 50 mg/kg po, 10 min",59.2 ± 0.8 ms
same,PQ,"anaesthetized rat; 50 mg/kg po, 20 min",59.0 ± 1.0 ms
same,QT,"anaesthetized rat; 50 mg/kg po, 20 min",58.0 ± 2.0 ms
same,PQ,"anaesthetized rat; 50 mg/kg po, 30 min",57.4 ± 1.2 ms
same,QT,"anaesthetized rat; 50 mg/kg po, 30 min",58.4 ± 1.0 ms
same,PQ,"anaesthetized rat; 50 mg/kg po, 40 min",59.2 ± 1.5 ms
same,QT,"anaesthetized rat; 50 mg/kg po, 40 min",59.2 ± 0.8 ms
same,PQ,"anaesthetized rat; 50 mg/kg po, 50 min",58.4 ± 1.0 ms
same,QT,"anaesthetized rat; 50 mg/kg po, 50 min",58.8 ± 1.2 ms
same,PQ,"anaesthetized rat; 50 mg/kg po, 60 min",58.4 ± 1.6 ms
same,QT,"anaesthetized rat; 50 mg/kg po, 60 min",58.8 ± 1.2 ms
same,PQ,"anaesthetized rat; 50 mg/kg po, 70 min",59.6 ± 1.0 ms
same,QT,"anaesthetized rat; 50 mg/kg po, 70 min",61.2 ± 4.2 ms
same,PQ,"anaesthetized rat; 50 mg/kg po, 80 min",59.6 ± 0.4 ms
same,QT,"anaesthetized rat; 50 mg/kg po, 80 min",60.0 ± 0.0 ms
same,PQ,"anaesthetized rat; 50 mg/kg po, 90 min",59.6 ± 1.3 ms
same,QT,"anaesthetized rat; 50 mg/kg po, 90 min",60.0 ± 0.0 ms
same,PQ,"anaesthetized rat; 300 mg/kg po, 0 min",51.6 ± 3.6 ms
same,QT,"anaesthetized rat; 300 mg/kg po, 0 min",58.0 ± 2.0 ms
same,PQ,"anaesthetized rat; 300 mg/kg po, 5 min",51.2 ± 3.4 ms
same,QT,"anaesthetized rat; 300 mg/kg po, 5 min",57.2 ± 2.0 ms
same,PQ,"anaesthetized rat; 300 mg/kg po, 10 min",54.8 ± 2.1 ms
same,QT,"anaesthetized rat; 300 mg/kg po, 10 min",55.6 ± 2.0 ms
same,PQ,"anaesthetized rat; 300 mg/kg po, 20 min",55.2 ± 2.2 ms
same,QT,"anaesthetized rat; 300 mg/kg po, 20 min",58.0 ± 2.0 ms
same,PQ,"anaesthetized rat; 300 mg/kg po, 30 min",55.2 ± 2.2 ms
same,QT,"anaesthetized rat; 300 mg/kg po, 30 min",58.0 ± 2.0 ms
same,PQ,"anaesthetized rat; 300 mg/kg po, 40 min",55.2 ± 2.1 ms
same,QT,"anaesthetized rat; 300 mg/kg po, 40 min",59.2 ± 0.8 ms
same,PQ,"anaesthetized rat; 300 mg/kg po, 50 min",55.8 ± 2.8 ms
same,QT,"anaesthetized rat; 300 mg/kg po, 50 min",60.0 ± 0.0 ms
same,PQ,"anaesthetized rat; 300 mg/kg po, 60 min",56.0 ± 2.8 ms
same,QT,"anaesthetized rat; 300 mg/kg po, 60 min",59.2 ± 0.8 ms
same,PQ,"anaesthetized rat; 300 mg/kg po, 70 min",55.4 ± 2.3 ms
same,QT,"anaesthetized rat; 300 mg/kg po, 70 min",60.0 ± 0.0 ms
same,PQ,"anaesthetized rat; 300 mg/kg po, 80 min",56.0 ± 2.4 ms
same,QT,"anaesthetized rat; 300 mg/kg po, 80 min",60.0 ± 0.0 ms
same,PQ,"anaesthetized rat; 300 mg/kg po, 90 min",56.0 ± 2.4 ms
same,QT,"anaesthetized rat; 300 mg/kg po, 90 min",59.6 ± 0.4 ms
same,Rate constant k,[2],0.83·10^–3 h^−1
same,t0.1,[2],127.0 h
same,half-life at 5 mg/mL,"[2]; borate buffer with 20% v/v 1,4-dioxane, pH 9.9, read-out: Half-life t0.5 (converted)",34.8 days
same,IC50,hNav1.7 sodium channel; 10 Hz,15.4 µM
same,IC50,hNav1.7 sodium channel; Inactivated state,< 10 µM
same,IC50,hNav1.7 sodium channel; Tonic block,52 µM
same,effect on acetic acid-induced writhing,mice,not significantly effective
